Experimental data published in ChEMBL document CHEMBL3045284 (Crop Prot, 2009).

Key:
Assay type in all cases: functional
[1] = tested on: Pyricularia oryzae; assay: Antifungal activity against Magnaporthe oryzae infected six-leaf stage of rice plant assessed as disease recovery at MIC treated 24 hr before fungal infection measured after 24 hr
[2] = tested on: Pyricularia oryzae; assay: Antifungal activity against Magnaporthe oryzae infected six-leaf stage of rice plant assessed as disease recovery at 4 time MIC treated 24 hr before fungal infection measured after 24 hr
[3] = tested on: Pyricularia oryzae; assay: Antifungal activity against drug-sensitive Magnaporthe oryzae infected six-leaf stage of rice plant assessed as reduction of disease recovery at 2 time MIC treated 24 hr before fungal infection measured after 6 days relative to control; set-up: scale not given: the % may be the effect or the level left
[4] = tested on: Pyricularia oryzae; assay: Antifungal activity against Magnaporthe oryzae infected six-leaf stage of rice plant assessed susceptible lesion number per leaf area at MIC treated 24 hr before fungal infection measured after 24 hr
[5] = tested on: Pyricularia oryzae; assay: Antifungal activity against drug-sensitive Magnaporthe oryzae infected six-leaf stage of rice plant assessed as disease recovery treated 24 hr before fungal infection measured after 24 hr
[6] = tested on: Pyricularia oryzae; assay: Antifungal activity against Magnaporthe oryzae infected six-leaf stage of rice plant assessed susceptible lesion number per leaf area at 8 time MIC treated 24 hr before fungal infection measured after 24 hr
[7] = tested on: Pyricularia oryzae; assay: Antifungal activity against Magnaporthe oryzae infected six-leaf stage of rice plant assessed as disease recovery at 2 time MIC treated 24 hr before fungal infection measured after 24 hr
[8] = tested on: Pyricularia oryzae; assay: Antifungal activity against Magnaporthe oryzae infected six-leaf stage of rice plant assessed susceptible lesion number per leaf area at 4 time MIC treated 24 hr before fungal infection measured after 24 hr
[9] = tested on: Pyricularia oryzae; assay: Antifungal activity against drug-sensitive Magnaporthe oryzae infected six-leaf stage of rice plant assessed as reduction of susceptible lesion number per leaf area at 2 time MIC treated 24 hr before fungal infection measured after 6 days relative to control; set-up: scale not given: the % may be the effect or the level left
[10] = tested on: Pyricularia oryzae; assay: Antifungal activity against drug-sensitive Magnaporthe oryzae infected six-leaf stage of rice plant assessed susceptible lesion number per leaf area treated 24 hr before fungal infection measured after 24 hr
[11] = tested on: Pyricularia oryzae; assay: Antifungal activity against Magnaporthe oryzae infected six-leaf stage of rice plant assessed as disease recovery at 8 time MIC treated 24 hr before fungal infection measured after 24 hr
[12] = tested on: Pyricularia oryzae; assay: Antifungal activity against Magnaporthe oryzae infected six-leaf stage of rice plant assessed susceptible lesion number per leaf area at 2 time MIC treated 24 hr before fungal infection measured after 24 hr

SMILES | Activity [1] | Activity [2] | Activity [3] | Activity [4] | Activity [5] | Activity [6] | Activity [7] | Activity [8] | Activity [9] | Activity [10] | Activity [11] | Activity [12]
CCOP(=O)(Sc1ccccc1)Sc1ccccc1 [EDIFENPHOS] | 0.49% | 0.18% | 55.6% | 0.19 cm2 | 0.27% | 0.03 cm2 | 0.35% | 0.07 cm2 | 63.5% | 0.1 cm2 | 0.08% | 0.14 cm2
CC(C)OP(=O)(OC(C)C)SCc1ccccc1 [IPROBENFOS] | 1.23% | 0.87% | 28.8% | 1.28 cm2 | 0.8% | 0.39 cm2 | 1.17% | 0.93 cm2 | 28.1% | 0.73 cm2 | 0.45% | 1.13 cm2
